Data published in PMC12621200, “Giving an Enzyme Scissors: Serotonin Derivatives as Potent Organocatalytic Switches for DNA Repair Enzyme OGG1” (Journal of Medicinal Chemistry, 2025).
Values after ≈ are worked out from the molar mass of the structure shown. “Also recorded” adds a separate entry of the source. Where two headings read alike, the source gives them in different places.

Key:
[1] = system: Caco-2 cell line; test: Caco-2 permeability assay; type: in vitro ADME
[2] = Caco-2 permeability assay; type: in vitro ADME; settings: human, Caco-2, pH 7.4; for efflux ratio at 90 min, 10 μM: P app (B to A) / P app (A to B)
[3] = target: T1, NUDT15 (Homo sapiens, UniProt Q9NV35); test: Selectivity screen, malachite green assay; type: biochemical; settings: compound 30 at 99 µM
T1 construct: made in house
T1 sequence (Q9NV35 1-164): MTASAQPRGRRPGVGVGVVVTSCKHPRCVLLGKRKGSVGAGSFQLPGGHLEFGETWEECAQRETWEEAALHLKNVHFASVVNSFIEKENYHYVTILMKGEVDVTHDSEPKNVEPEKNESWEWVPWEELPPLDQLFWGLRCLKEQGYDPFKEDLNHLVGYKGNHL

[4] = target: T2, NUDT5 (Homo sapiens, UniProt Q9UKK9); test: Selectivity screen, malachite green assay; type: biochemical; settings: compound 30 at 99 µM
T2 construct: made in house

[5] = target: T3, NUDT22 (Homo sapiens, UniProt Q9BRQ3); test: Selectivity screen, malachite green assay; type: biochemical; settings: compound 30 at 99 µM
T3 construct: made in house
T3 sequence (Q9BRQ3 1-303): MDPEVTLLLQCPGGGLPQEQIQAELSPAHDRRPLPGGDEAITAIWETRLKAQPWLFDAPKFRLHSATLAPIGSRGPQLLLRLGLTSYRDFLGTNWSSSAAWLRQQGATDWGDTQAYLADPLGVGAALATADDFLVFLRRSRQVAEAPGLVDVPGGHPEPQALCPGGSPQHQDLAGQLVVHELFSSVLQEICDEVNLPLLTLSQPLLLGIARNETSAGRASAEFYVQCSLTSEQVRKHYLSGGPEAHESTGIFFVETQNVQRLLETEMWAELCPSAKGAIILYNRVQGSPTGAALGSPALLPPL

[6] = target: T4, OGG1 (Homo sapiens, UniProt O15527); test: NaBH4 Schiff-base trapping assay; type: biochemical; settings: AP or 8-oxoG DNA substrates; 6.25 μM TH10785, 6.25 μM 30, 10 μM 38
T4 construct: made in house
T4 sequence (O15527 whole entry): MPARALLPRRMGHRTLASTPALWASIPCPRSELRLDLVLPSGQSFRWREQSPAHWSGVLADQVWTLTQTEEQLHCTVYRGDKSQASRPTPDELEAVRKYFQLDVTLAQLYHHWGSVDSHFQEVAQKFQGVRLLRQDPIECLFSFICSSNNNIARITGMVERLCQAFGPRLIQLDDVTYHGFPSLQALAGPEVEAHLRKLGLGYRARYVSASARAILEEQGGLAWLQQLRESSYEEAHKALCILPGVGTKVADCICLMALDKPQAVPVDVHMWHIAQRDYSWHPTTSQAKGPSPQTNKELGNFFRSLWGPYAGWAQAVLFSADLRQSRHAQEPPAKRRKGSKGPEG

[7] = target: T5, K249A mutant OGG1 (Homo sapiens, UniProt O15527, K249A); test: AP-lyase assay on radiolabeled AP-site-containing oligonucleotide (PAGE); type: biochemical; settings: Figure S8
T5 construct: made in house
T5 sequence (O15527 whole entry K249A): as the sequence (O15527 whole entry) above, with K249A counted along it

[8] = target: T6, MPG (Homo sapiens, UniProt P29372); test: Selectivity screen, glycosylase inhibition in kinetic mode; type: biochemical; settings: compound 30 at 99 µM
T6 construct: made in house
T6 sequence (P29372 18-298, species assumed): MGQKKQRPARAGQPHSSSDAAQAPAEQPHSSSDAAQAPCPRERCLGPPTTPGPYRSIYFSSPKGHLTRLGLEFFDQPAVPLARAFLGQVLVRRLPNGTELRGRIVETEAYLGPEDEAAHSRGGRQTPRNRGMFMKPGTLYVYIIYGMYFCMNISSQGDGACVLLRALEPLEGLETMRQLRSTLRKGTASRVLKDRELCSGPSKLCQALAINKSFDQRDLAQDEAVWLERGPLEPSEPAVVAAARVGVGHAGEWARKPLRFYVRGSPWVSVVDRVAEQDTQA

[9] = target: UNG (Homo sapiens, UniProt P13051); test: as above; type: biochemical; settings: compound 30 at 99 µM
Chain of UNG (P13051 94-313 limits assumed): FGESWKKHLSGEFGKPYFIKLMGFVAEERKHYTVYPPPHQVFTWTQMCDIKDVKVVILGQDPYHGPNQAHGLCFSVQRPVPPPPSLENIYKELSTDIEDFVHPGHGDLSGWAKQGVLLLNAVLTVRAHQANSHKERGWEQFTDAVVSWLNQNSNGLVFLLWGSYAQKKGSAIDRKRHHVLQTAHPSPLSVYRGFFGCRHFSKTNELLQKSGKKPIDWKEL

[10] = target: T7, NEIL1 (Homo sapiens, UniProt Q96FI4); test: as above; type: biochemical; settings: compound 30 at 99 µM
T7 construct: made in house
T7 sequence (Q96FI4 whole entry, species assumed): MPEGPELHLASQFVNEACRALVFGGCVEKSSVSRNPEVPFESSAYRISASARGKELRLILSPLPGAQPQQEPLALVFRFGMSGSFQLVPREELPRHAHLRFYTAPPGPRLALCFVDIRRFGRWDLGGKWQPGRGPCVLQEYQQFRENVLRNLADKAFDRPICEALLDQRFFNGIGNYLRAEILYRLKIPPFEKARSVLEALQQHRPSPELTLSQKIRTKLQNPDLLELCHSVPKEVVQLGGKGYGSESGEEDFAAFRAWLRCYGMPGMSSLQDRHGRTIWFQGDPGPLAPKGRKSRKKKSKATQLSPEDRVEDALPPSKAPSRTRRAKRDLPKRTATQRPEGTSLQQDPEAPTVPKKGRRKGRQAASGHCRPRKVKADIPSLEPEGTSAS

[11] = target: T8, TDG (Homo sapiens, UniProt Q13569); test: as above; type: biochemical; settings: compound 30 at 99 µM
T8 construct: made in house
T8 sequence (Q13569 whole entry, species assumed): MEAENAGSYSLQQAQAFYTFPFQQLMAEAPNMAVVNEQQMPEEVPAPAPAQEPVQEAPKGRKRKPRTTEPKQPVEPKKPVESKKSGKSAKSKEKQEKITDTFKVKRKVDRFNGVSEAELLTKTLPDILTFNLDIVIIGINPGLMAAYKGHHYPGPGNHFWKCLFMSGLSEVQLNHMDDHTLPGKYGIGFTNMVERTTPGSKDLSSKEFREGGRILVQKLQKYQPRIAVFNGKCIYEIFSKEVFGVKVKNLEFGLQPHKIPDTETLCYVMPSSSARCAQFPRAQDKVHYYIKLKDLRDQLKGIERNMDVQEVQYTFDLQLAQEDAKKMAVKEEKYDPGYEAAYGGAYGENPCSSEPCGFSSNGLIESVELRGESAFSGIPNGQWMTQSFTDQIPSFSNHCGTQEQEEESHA

[12] = target: T9, NTHL1 (Homo sapiens, UniProt P78549); test: as above; type: biochemical; settings: compound 30 at 99 µM
T9 construct: made in house
T9 sequence (P78549 23-304): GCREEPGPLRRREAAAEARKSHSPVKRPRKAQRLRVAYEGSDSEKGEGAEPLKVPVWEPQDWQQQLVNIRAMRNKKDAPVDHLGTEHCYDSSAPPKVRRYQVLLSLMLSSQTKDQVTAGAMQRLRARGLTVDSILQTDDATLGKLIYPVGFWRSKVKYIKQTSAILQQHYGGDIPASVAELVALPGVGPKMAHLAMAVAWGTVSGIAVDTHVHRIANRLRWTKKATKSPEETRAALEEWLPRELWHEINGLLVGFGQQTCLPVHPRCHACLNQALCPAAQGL

[13] = target: MTH1 (Homo sapiens, UniProt P36639); test: Selectivity screen; type: biochemical; settings: compound 30 at 99 µM
[14] = target: T10, APE1 (Homo sapiens, UniProt P27695); test: Selectivity screen; type: biochemical; settings: compound 30 at 99 µM
T10 construct: made in house
T10 sequence (P27695 whole entry, species assumed): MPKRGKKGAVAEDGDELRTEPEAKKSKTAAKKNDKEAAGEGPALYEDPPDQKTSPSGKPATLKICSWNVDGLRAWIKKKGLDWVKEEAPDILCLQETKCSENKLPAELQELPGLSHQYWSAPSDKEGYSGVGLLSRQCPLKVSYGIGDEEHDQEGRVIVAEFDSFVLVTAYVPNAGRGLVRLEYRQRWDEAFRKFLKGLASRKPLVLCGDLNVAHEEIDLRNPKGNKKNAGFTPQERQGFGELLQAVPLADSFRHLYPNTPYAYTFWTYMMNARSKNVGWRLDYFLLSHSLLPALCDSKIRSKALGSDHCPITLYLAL

[15] = system: panel of DNA glycosylases and NUDIX nucleotide binding proteins; test: Selectivity: lowest IC50 in glycosylase/NUDIX panel divided by OGG1 AC50; type: biochemical; settings: lowest IC50 against panel / OGG1 AC50
[16] = system: BJ-RAS and BJ-TERT cell lines; test: Resazurin cell viability assay for toxicity testing; type: cell-based; settings: for toxicity in words: BJ-TERT and BJ-RAS cells, 30 at 100 μM over several days; for toxicity: incubation in BJ-RAS and BJ-TERT cell lines
[17] = Kinetic solubility assay in PBS; type: physicochemical; settings: for solubility at 2 h: phosphate-buffered saline, 25 °C, kinetic from dmso stock, kinetic solubility in PBS buffer (pH 7.4), read-out: aq. solubility
[18] = Microsomal stability assay; type: in vitro ADME, human; settings: for half-life at 2 μM: human, liver microsomes
[19] = target: T4, OGG1; test: hOGG1 activity assay on radiolabeled 8-oxoG-containing oligonucleotide (urea-PAGE); type: biochemical; settings: for stimulation of OGG1 AP lyase activity (incised substrate after 4 min): 6.25 μM TH10785, 6.25 μM 30, 10 μM 38, 10 nM hOGG1; for incision mode: elimination products of AP-site cleavage
[20] = target: T4, OGG1; test: Biochemical fluorescence (fluorophore-quencher) assay of OGG1 incision rate, 8-oxoA substrate; settings: for AcLE: (1.37/#heavy atoms) × pAC50; for AC50: concentration giving 50% of the incision rate of OGG1 with APE1 (2 nM) control
[21] = target: T11, Lys249Trp mutant of OGG1 (Homo sapiens, UniProt O15527, K249W); test: Fluorophore-quencher assay with OGG1 mutants; type: biochemical; settings: standard fluorescence assay
T11 construct: made in house
T11 sequence (O15527 whole entry K249W): as the sequence (O15527 whole entry) above, with K249W counted along it

[22] = system: C253Y, F319A, K249W or D268A hOGG1 (active site mutants); test: Fluorophore-quencher assay with OGG1 mutants; type: biochemical, human; settings: 0.25 μM of 38, 10 nM enzyme
[23] = target: T12, S326C hOGG1 (Homo sapiens, UniProt O15527, S326C); test: Fluorophore-quencher assay with OGG1 mutants; type: biochemical; settings: 0.25 μM of 38, 50 nM S326C hOGG1
T12 construct: made in house
T12 sequence (O15527 whole entry S326C): as the sequence (O15527 whole entry) above, with S326C counted along it

[24] = Microsomal stability assay; type: in vitro ADME; settings: pH 7.4; mouse liver microsomes
[25] = basic nitrogen; cited from earlier work
[26] = system: activated peripheral blood mononuclear cells (human T cells); test: Activated peripheral blood mononuclear cell proliferation assay; type: cell-based
[27] = Caco-2, in the presence of P-gp inhibitor (verapamil)

**Q.** Which results are given for NCCc1c(-c2cccnc2)[nH]c2ccc(O)cc12 [Compound 30, 3-(2-Aminoethyl)-2-(pyridin-3-yl)-1H-indol-5-ol]?
**A.** P app (AB) [1, 27]: 1.07 ×10⁻⁶ cm/s; P app (BA) [1, 27]: 1.87 ×10⁻⁶ cm/s; P-gp substrate assessment ([1]; decrease of efflux with verapamil): P-gp substrate; Papp A→B at 90 min, 10 µM [2]: 0.53 ×10⁻⁶ cm/s; Papp B→A at 90 min, 10 µM [2]: 2.15 ×10⁻⁶ cm/s; efflux ratio at 90 min, 10 μM [2]: 4.1; inhibition [3]: No effect; inhibition [4]: No effect; inhibition [5]: No effect; effect on level of cross-linked product (Schiff-base formation) [6]: no discernible effect; restoration of AP-lyase activity of Lys249Ala mutant [7]: failed to restore AP-lyase activity; inhibition at 99 µM [8]: 17%; inhibition at 99 µM [9]: 31%; inhibition at 99 µM [10]: 13%; inhibition at 99 µM [11]: 55%; inhibition at 99 µM [12]: 25%; inhibition at 99 µM [13]: 34%; inhibition [14]: No effect; selectivity [15]: >150-fold; toxicity in words [16]: no detectable toxicity; toxicity [16]: >100 µM; higher aqueous solubility compared to TH10785 [17]: 58 fold; solubility at 2 h ([17]; pH 7.4, aqueous buffer): > 300 µM; half-life at 2 μM ([18]; pH 7.4, human liver microsomes, read-out: t 1/2): 3.55 h; half-life at 2 μM ([18]; pH 7.4, human microsomes, read-out: microsomal half-life / metabolic stability): > 3.5 h; k el at 2 μM ([18]; pH 7.4, human liver microsomes): 5e-05 s⁻¹; microsomal CLint at 2 μM ([18]; pH 7.4, human liver microsomes): 8 µL/min/mg; stimulation of OGG1 AP lyase activity (incised substrate after 4 min) [19]: not significant; incision mode [19]: primarily induced β-elimination and β; AcLE [20]: 0.456; AC50 ([20]; AC50 (CI95%)): 580 nM; improvement of potency over 1 ([20]; AC50 ratio): 10 fold

**Q.** With NCCc1c(-c2cccnc2)[nH]c2cc(F)c(O)cc12 [Compound 38, 3-(2-Aminoethyl)-6-fluoro-2-(pyridin-3-yl)-1H-indol-5-ol] as the compound, how does the “restoration of activity of Lys249Trp mutant” value [21] read?
**A.** failed to restore activity

**Q.** And the “restoration of activity in active site mutants” value [22]?
**A.** did not restore activity

**Q.** And the “effect on level of cross-linked product (Schiff-base formation)” value [6]?
**A.** no discernible effect

**Q.** And the “effect on AP-lyase activity of Ser326Cys mutant” value [23]?
**A.** accelerated the AP-lyase activity

**Q.** What about the “stimulation of OGG1 AP lyase activity (incised substrate after 4 min)” value [19] of the same compound?
**A.** Stimulation of OGG1 AP lyase activity was observed

**Q.** And the incision mode [19]?
**A.** primarily induced β-elimination

**Q.** What about the AC50 ([20]; read-out: AC50 (CI95%)) of the same compound?
**A.** 40 nM

**Q.** What does the source list for c1ccc2c(NC3CCCCC3)nc(C3CC3)nc2c1 [TH10785, reference compound]?
**A.** Papp A→B at 90 min, 10 µM [2]: 1.5 ×10⁻⁶ cm/s; Papp B→A at 90 min, 10 µM [2]: 4.9 ×10⁻⁶ cm/s; efflux ratio at 90 min, 10 μM [2]: 3.3; effect on level of cross-linked product (Schiff-base formation) [6]: no discernible effect; microsomal CLint at 2 μM [24]: 347 µL/min/mg; selectivity [15]: >120-fold; pK a [25]: ≈ 6.55; toxicity in words [16]: some toxicity; toxicity [16]: > 18 µM; solubility at 2 h ([17]; aqueous buffer): 6 µM (≈ 1.6 µg/mL); microsomal CLint at 2 μM ([18]; pH 7.4, human liver microsomes): 18 µL/min/mg; stimulation of OGG1 AP lyase activity (incised substrate after 4 min) [19]: Stimulation of OGG1 AP lyase activity was observed; incision mode [19]: both β and β,δ-elimination products and β,δ; AcLE [20]: 0.419; AC50 ([20]; read-out: AC50 (CI95%)): 870 nM; AcLLE ([20]; pAC50 – clogP): 1.57; effect on proliferation ([26]; CD3/CD28/IL-2 activated cells, 96 h): suppresses proliferation in a dose-dependent manner at 10 and 20 μM; also recorded: inhibits proliferation; toxicity ([26]; value obtained using PBMCs): 20 µM
